Data published in PMC6158189, “A pharmacological probe identifies cystathionine β-synthase as a new negative regulator for ferroptosis” (Cell Death & Disease, 2018).
Entries after “also recorded” stand apart in the source; their conditions may differ.

Biological target: T1, hCBS (Homo sapiens, UniProt P35520)
T1 construct: GST (N); made in house; host or cells: E. coli BL21
T1 sequence (P35520 1-551): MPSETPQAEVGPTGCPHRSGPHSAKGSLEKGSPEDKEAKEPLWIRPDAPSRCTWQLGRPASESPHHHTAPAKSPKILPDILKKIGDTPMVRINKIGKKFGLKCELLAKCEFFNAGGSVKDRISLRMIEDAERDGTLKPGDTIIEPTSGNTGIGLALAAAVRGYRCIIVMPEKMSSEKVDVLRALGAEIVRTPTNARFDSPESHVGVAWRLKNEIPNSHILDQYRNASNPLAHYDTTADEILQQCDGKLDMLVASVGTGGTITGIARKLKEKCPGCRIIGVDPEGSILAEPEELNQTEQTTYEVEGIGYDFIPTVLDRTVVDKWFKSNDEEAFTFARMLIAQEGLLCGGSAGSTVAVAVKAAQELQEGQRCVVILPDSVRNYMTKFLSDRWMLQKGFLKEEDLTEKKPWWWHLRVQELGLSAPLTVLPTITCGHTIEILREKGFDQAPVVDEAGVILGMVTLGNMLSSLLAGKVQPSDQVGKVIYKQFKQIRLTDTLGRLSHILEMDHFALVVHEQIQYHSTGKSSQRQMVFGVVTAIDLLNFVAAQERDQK
Assay: rapid dilution reversibility experiment
Assay type: biochemical
Conditions: 10 μM, 40 min pre-incubation with 20 μM hCBS, 200-fold dilution
Protocol: Figure S2. The mode of action of CH004 in inhibiting hCBS. […] After incubation with DMSO or CH004 at 10 μM for 40 min, hCBS (20 μM) was diluted 200-fold and the activity was measured according to the standard assay protocol (Materials and Methods). The data are presented as percentages of control (CTR; DMSO, 100%) and shown as means ± SDs (n = 5). The effects of 0.05 and 10 μM CH004 on hCBS (100 nM) without pre-incubation were defined as positive control (PC) and negative control (NC), respectively. (B) Inhibition of hCBS by CH004 as a function of PLP concentration with Cys (20 mM) together with Hcys (10 mM) as substrates (non-competitive inhibition constant αKi=15.2 ± 4.9 μM). (C) Inhibition of hCBS by CH004 as a function of Cys concentration in the presence of 100 μM PLP and the absence of Hcys (mixed inhibition constant αKi=26.4 ± 8 μM). (D) Inhibition of hCBS by CH004 as a function of Hcys concentration in the presence of 20 mM Cys and 100 μM PLP (mixed inhibition constant αKi’=7.2 ± 1.6 μM). Each point in the Lineweaver-Burk plots represents the means of triplicate. The αKi or αKi’ values were calculated by using the non-linear fitting method for enzyme kinetics in GraphPad Prism 5. (E) Surface Plasmon Resonance assays analysis of the binding of CH004 to hCBS. […] Dissociation constants for CH004 (KD) were calculated by using Biacore evaluation software (Materials and Methods).

Cn1nc(Cc2ccccc2)nc2c(=O)n(C)c(=O)nc1-2 [CH004, 3-benzyl-1,6-dimethylpyrimido[5,4-e][1,2,4]triazine-5,7(1H,6H)-dione]
reversibility of binding to hCBS: binds reversibly; also recorded: reversibly binds
